pKi: −log10 of the molar value. Counter-ions that a name gives are not always drawn.
Target: T1, human leukocyte elastase (HLE) (Homo sapiens, UniProt P08246)
T1 sequence (P08246 30-267): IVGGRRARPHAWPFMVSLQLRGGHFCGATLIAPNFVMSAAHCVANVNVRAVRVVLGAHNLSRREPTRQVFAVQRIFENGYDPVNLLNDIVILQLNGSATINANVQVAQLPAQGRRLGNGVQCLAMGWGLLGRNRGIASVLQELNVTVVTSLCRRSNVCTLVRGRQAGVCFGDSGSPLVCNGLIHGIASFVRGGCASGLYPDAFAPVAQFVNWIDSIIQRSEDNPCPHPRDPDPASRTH
Assay: Inhibition of human leukocyte elastase (HLE): rate of inactivation kon and inhibition constant Ki* (= koff/kon)
Type: biochemical
Conditions: for kinact/KI: "Kon × 10^-3": value is Kon multiplied by 10^-3; for pKi: Ki* calculated as koff/kon, not a truly reversible Ki
Protocol: Measurement of the inhibition constant, Ki, of a HLE-inhibitor complex has been described for "truly reversible inhibition constants" usually concerning competitive inhibitors. [Cha, Biochem. Pharmacol., 24, 2177-2185 (1975)]. […] Thus, instead of measuring a Ki, a Ki * is calculated which is defined as the ratio of the koff /kon, the rate of reactivation of the enzyme to the rate of inactivation of the enzyme. The values of koff and kon are measured and Ki * is then calculated. The rate of inactivation, kon, of enzymatic activity was determined for the compounds tested by measuring the enzyme activity of an aliquot of the respective enzyme as a function of time after addition of the test compound. […] The rate of inactivation is then equal to [formula] where [I] is the concentration of the inhibiting compound. The reactivation constant, koff, is similarly determined, and the inhibition constant, Ki *, is then calculated as Ki *=koff /kon The values obtained for kon and Ki * for specific substituted saccharin derivatives are shown in TABLE 3, the compounds being identified by the Example numbers above where their preparations are described.

kinact/KI [M⁻¹ s⁻¹]	pKi	SMILES
47600	9.68	COc1cc(C(C)C)c2c(c1)S(=O)(=O)N(COC(=O)c1ccsc1)C2=O [Example 6, 4-isopropyl-6-methoxy-2-saccharinylmethyl thiophene-3-carboxylate]
455000	10.66	COc1cc(C(C)C)c2c(c1)S(=O)(=O)N(COC(=O)c1c(Cl)cnc(OCCN(C)C)c1Cl)C2=O [Example 5, 4-isopropyl-6-methoxy-2-saccharinylmethyl 3,5-dichloro-2-[2-(dimethylamino)ethoxy]pyridine-4-carboxylate]
1.5e+06	10.82	CC(C)c1cccc2c1C(=O)N(COC(=O)c1c(Cl)cnc(OCCN3CCOCC3)c1Cl)S2(=O)=O [Example 3, 4-(isopropyl]-2-saccharinylmethyl 3.5-dichloro-2-[2-(4-morpholinyl)ethoxy]pyridine-4-carboxylate hydrochloride]
11000	8.00	O=C(OCN1C(=O)c2ccccc2S1(=O)=O)c1c(Cl)cncc1Cl [Example 2, 2-saccharinylmethyl 3,5-dichloropyridine-4-carboxylate]
63000	9.80	COc1cc(C(C)C)c2c(c1)S(=O)(=O)N(COC(=O)c1cc(C)no1)C2=O [Example 10, 4-isopropyl-6-methoxy-2-saccharinylmethyl 3-methylisoxazole-5-carboxylate]
2.3e+06	–	CC(C)c1cccc2c1C(=O)N(COC(=O)c1c(Cl)cncc1Cl)S2(=O)=O [Example 4, 4-isopropyl-2-saccharinylmethyl 3,5-dichloro-pyridine-4-carboxylate hydrochloride]
9000	8.96	COc1cc(C(C)C)c2c(c1)S(=O)(=O)N(COC(=O)c1c(C)nn(-c3ccccc3)c1C)C2=O [Example 13, 4-isopropyl.-6-methoxy-2-saccharinylmethyl 3,5-dimethyl-1-phenylpyrazole-4-carboxylate]
625000	10.80	COc1cc(C(C)C)c2c(c1)S(=O)(=O)N(COC(=O)c1sccc1C)C2=O [Example 7, 4-isopropyl-6-methoxy-2-saccharinylmethyl 3-methylthiophene-2-carboxylate]
50000	9.70	COc1cc(C(C)C)c2c(c1)S(=O)(=O)N(COC(=O)C1CCC(=O)N1)C2=O (centres unmarked) [Example 11, 4-isopropyl-6-methoxy-2-saccharinylmethyl-2-pyrrolidine-5-carboxylate]
6000	8.82	COc1cc(C(C)C)c2c(c1)S(=O)(=O)N(COC(=O)c1c(C)c3cc(Cl)ccc3n1C)C2=O [Example 15, 4-isopropyl-6-methoxy-2-saccharinylmethyl 1,3-dimethyl-5-chloro-indole-2-carboxylate]
500000	10.70	COc1cc(C(C)C)c2c(c1)S(=O)(=O)N(COC(=O)c1c(C)ccnc1C)C2=O [Example 14, 4-isopropyl-6-methoxy-2-saccharinylmethyl 2,4-dimethylpyridine-3 carboxylate]
28000	9.44	COc1cc(C(C)C)c2c(c1)S(=O)(=O)N(COC(=O)c1c(C)noc1C)C2=O [Example 12, 4-isopropyl-6-methoxy-2-saccharinylmethyl 3,5-dimethylisoxazole-4-carboxylate]
100000	10.00	COc1cc(C(C)C)c2c(c1)S(=O)(=O)N(COC(=O)c1cccs1)C2=O [Example 8, 4-isopropyl-6-methoxy-2-saccharinylmethyl thiophene-2-carboxylate]
131000	10.12	COc1cc(C(C)C)c2c(c1)S(=O)(=O)N(COC(=O)c1sccc1Cl)C2=O [Example 9, 4-isopropyl-6-methoxy-2-saccharinylmethyl 3-chlorothiophene-2-carboxylate]
1200	7.40	O=C(OCN1C(=O)c2ccccc2S1(=O)=O)c1ccncc1 [Example 1, 2-saccharinylmethyl pyridine-4-carboxylate]

— US5563163A, “2-saccharinylmethyl heterocyclic carboxylates useful as proteolytic enzyme inhibitors and compositions and method of use thereof” (Sterling Winthrop, Inc., priority 1995, dated 1996)
